15 compounds from patent US8198279B2, “Pyrido[2,3-b]pyrazin-8-substituted compounds and their use” (Institute of Cancer Research: Royal Cancer Hospital (The), priority 2007, dated 2012) can be followed below.

In one test the target is T1, B-RAF (Homo sapiens, UniProt P15056, V600E).
T1 construct: made in house
As to the kind of experiment: DELFIA Kinase Assay. It counts as biochemical. To be noted: 100 μM ATP, GST-MEK substrate. The method in brief:
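Recombinant B-RAF (V600E) with GST-MEK substrate was preincubated with compound for 10 min at room temperature, then reacted with 100 μM ATP for 45 min on milk-preblocked wells, with antibody detection by DELFIA europium fluorescence. Response is taken as % of DMSO control after empty-vector blank subtraction; IC50 is from a variable-slope sigmoidal fit, mean of usually three independent runs.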

Another test concerns pERK. As to the kind of experiment: Cell Based Phospho-ERK Assay. The settings on record: 6 h, 6 hours incubation with test compound. As to the method:
Biological Methods—Cell Based Phosho-ERK Assay
Compounds were assessed using a cell-based assay which was performed according to the following protocol.
Plate out 16,000 cells/well in 99 μL medium in a 96-well plate.
• 1. Add 1 μL inhibitor to the cells (total […] solution). • 2. Incubate the cells with test compound for 6 hours at 37° C. • 3. Aspirate off the solution from all of the wells. • 4. Fixate the cells with 100 μL 4% formaldehyde/0.25% Triton X-100 PBS per well. • 5. Incubate the plate for 1 hour at 4° C. • 6. Aspirate off the fixing solution and add 300 μL TBS per well. • 7. Leave the plate overnight at 4° C. Day 2: • 1. Wash the plate 2× with 200 μL PBS per well. • 2. Block with 100 μL 5% dried milk in TBS. • 3. Incubate the plate for 20 minutes at 37° C. • 4. Wash the plate 2× with 0.1% tween/H2O. • 5. Add 50 μL of 3 μg/mL primary antibody pERK (Sigma M8159), diluted in 5% milk powder/TBS, to each well. • 6. Incubate the plate for 2 hours at 37° C. • 7. Wash the plate 3× with 0.1% tween/H2O. • 8. Add 50 μL of 0.45 μg/mL secondary Europium-labelled anti-mouse antibody (Perkin Elmer) to each well. • 9. Incubate the plate for 1 hour at 37° C. • 10. Wash the plate 3× with 0.1% tween/H2O. • 11. Add 100 μL enhancement solution (Perkin Elmer) to each well. • 12. Leave the plate for approximately 10 minutes at room temperature before gently shaking the plate. • 13. Read Europium Time Resolved Fluorescence in Victor2. • 14. Wash the plate 2× with 0.1% tween/H2O. • 15. Measure the protein concentration with BCA (Sigma) by adding 200 μL of solution per well. • 16. Incubate the plate for 30 minutes at 37° C. • 17. Read absorbance levels at 570 nm in a plate reader.
Note that Europium counts are normalised for protein levels by dividing counts by absorbance.
Values for the blank (no cells) are subtracted from all values. The DMSO controls are set as 100% activity and assay points (the response) are calculated as a percentage of the DMSO control. Data are plotted using Graphpad Prism software and a non-linear regression line is calculated using a variable slope sigmoidal dose-response equation (Y=Bottom+(Top−Bottom)/(1+10^((LogEC50−X)*HillSlope)) where X is the logarithm of concentration. Y is the response). The IC50 generated by this procedure is the concentration of the drug that produces a percentage control fluorescence value midway between the saturation, and zero-effect plateaus. Three independent assays are usually performed and the mean IC50 is reported.

The test system of the next test is WM266.4 melanoma cells. Kind of test: SRB Cell Proliferation Assay (SRB GI50). It is filed as cell-based. To be noted: Homo sapiens, WM 266-4, 144 h, 6 days growth. As to the method:
Biological Methods —SRB Cell Proliferation Assay (SRB GI50)
Cultures of WM266.4 melanoma cells are routinely cultured in DMEM/10% foetal bovine serum, at 37° C., in 5% CO2 water saturated atmosphere. Cultures are maintained in exponential growth phase by sub-culturing before having become confluent (3-5 day intervals). Single cell suspensions are prepared by harvesting an 80 cm^2 tissue culture flask with 5 mL commercial trypsin EDTA. After 5 minutes, the detached cells are mixed with 5 mL fully complemented culture medium and centrifugally pelleted (1000 rpm for 7 minutes). After aspirating the supernatant, the cell pellet is re-suspended in 10 mL fresh medium and the cells fully disaggregated by drawing the whole volume up/down 5 times through a 19-gauge needle. The concentration of the cells is determined using a haemocytometer (1/10 dilution). A suitable volume to give at least a 2-fold excess for the number of tests being conducted, typically 100-200 mL, is prepared by diluting the cell suspension to 10,000/mL, and 100 μL/well dispensed into 96 well plates using a programmable 8-channel peristaltic pump, giving 1000 cells/well, leaving column 12 blank. The plates are returned to the incubator for 24 hours to allow the cells to re-attach.
The compounds being tested are prepared at 20 mM in dimethylsulphoxide. Aliquots (200 μL) are diluted into 20 mL culture medium giving 200 μM, and 10 serial dilutions of 3× performed by transferring 5 mL to 10 mL. Aliquots (100 μL) of each dilution are added to the wells, using an 8-channel pipettor, thus performing a final further 2× dilution, and giving doses ranging from 100 μM to 0.005 μM. Column 11 receives plain culture medium only. Each compound is tested in quadruplicate, each replicate being the average of four wells, and two plates per compound.
After a further 6 days growth, the plates are emptied, and the cells are fixed in 10% trichloroacteic acid for 10 minutes on ice. After thorough rinsing in running tap water, the plates are dried, and stained by adding 50 μL of a solution of 0.1% sulphorhodamine-B in 1% acetic acid, for 10 minutes at room temperature. The stain is poured out and the plates thoroughly rinsed under a stream of 1% acetic acid, thus removing unbound stain, and dried. The bound stain is taken into solution by addition of 150 μL Tris buffer pH 8, followed by 10 minutes on a plate-shaker (approximately 500 rpm). The absorbance at 540 nm in each well (being proportional to the number of cells present) is determined using a plate reader.
After averaging the results in rows A-D and E-H, the blank value (row 12) is subtracted, and results expressed as percentage of the untreated value (row 11). […] The GI50 generated by this procedure is the concentration of the drug that produces a percentage control A540 midway between the saturation, and zero-effect plateaus.

T1 sequence (P15056 whole entry V600E): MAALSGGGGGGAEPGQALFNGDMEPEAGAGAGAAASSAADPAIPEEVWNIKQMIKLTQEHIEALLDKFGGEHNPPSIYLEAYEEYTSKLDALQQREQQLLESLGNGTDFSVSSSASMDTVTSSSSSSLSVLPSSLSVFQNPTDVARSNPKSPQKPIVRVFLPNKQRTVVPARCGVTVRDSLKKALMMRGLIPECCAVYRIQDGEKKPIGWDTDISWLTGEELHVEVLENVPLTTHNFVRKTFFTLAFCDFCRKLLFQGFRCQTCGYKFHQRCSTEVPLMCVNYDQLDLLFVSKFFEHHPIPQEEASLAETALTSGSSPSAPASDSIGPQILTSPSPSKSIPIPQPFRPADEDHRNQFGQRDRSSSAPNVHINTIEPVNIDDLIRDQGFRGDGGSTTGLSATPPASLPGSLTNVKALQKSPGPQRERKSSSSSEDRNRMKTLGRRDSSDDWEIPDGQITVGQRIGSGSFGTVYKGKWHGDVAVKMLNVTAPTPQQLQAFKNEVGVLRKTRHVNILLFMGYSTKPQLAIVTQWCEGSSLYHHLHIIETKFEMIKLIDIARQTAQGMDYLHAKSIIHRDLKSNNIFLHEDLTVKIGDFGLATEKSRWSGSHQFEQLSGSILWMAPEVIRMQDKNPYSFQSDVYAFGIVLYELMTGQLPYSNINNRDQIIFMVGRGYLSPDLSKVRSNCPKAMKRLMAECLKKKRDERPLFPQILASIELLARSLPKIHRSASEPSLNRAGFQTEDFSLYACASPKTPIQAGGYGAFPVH

For `CC(C)(C)c1cc(NC(=O)Nc2ccc(Oc3ccnc4[nH]c(=O)c(=O)[nH]c34)cc2F)n(-c2ccc(S(C)(=O)=O)cc2)n1` [AA-092, 1-(3-tert-butyl-1-(4-(methylsulfonyl)phenyl)-1H-pyrazol-5-yl)-3-(4-(2,3-dioxo-1,2,3,4-tetrahydropyrido[3,2-b]pyrazin-8-yloxy)-2-fluorophenyl)urea], the IC50 (commonly the point on the concentration scale where inhibition reaches its midpoint) lay in the range of 100 to 1000 nM against B-RAF and 1000 to 10000 nM with pERK. Further, the GI50 (in general, the concentration at which growth is held to half of that of the control) with WM266.4 melanoma cells was 1000 to 10000 nM.

As for `CSc1cc(Oc2ccnc3[nH]c(=O)c(C)nc23)ccc1NC(=O)Nc1cc(C(C)(C)C)nn1-c1ccc(C)cc1` [AA-061, 1-(3-tert-butyl-1-p-tolyl-1H-pyrazol-5-yl)-3-(4-(2-methyl-3-oxo-3,4-dihydropyrido[2,3-b]pyrazin-8-yloxy)-2-(methylthio)phenyl)urea], the IC50 against B-RAF is less than 100 nM; in the test on pERK it was less than 1000 nM. Besides, the concentration for 50% growth inhibition (GI50) in the test with WM266.4 melanoma cells was less than 1000 nM.

For `C#CCn1nc(C(C)(C)C)cc1NC(=O)Nc1ccc(Oc2ccnc3[nH]c(=O)cnc23)cc1F` [AA-096], the concentration for half-maximal inhibition (IC50) was less than 100 nM on B-RAF and less than 1000 nM in the test on pERK. In the test on WM266.4 melanoma cells, this compound showed a GI50 of 1000 to 10000 nM.

For the compound `CSc1cc(Oc2ccnc3[nH]c(=O)c(C)nc23)ccc1NC(=O)Nc1cc(C(F)(F)F)ccc1F` [AA-060, 1-(2-fluoro-5-(trifluoromethyl)phenyl)-3-(4-(2-methyl-3-oxo-3,4-dihydropyrido[2,3-b]pyrazin-8-yloxy)-2-(methylthio)phenyl)urea], the IC50 is less than 100 nM on B-RAF and less than 1000 nM in the test with pERK. For the same compound, in the test with WM266.4 melanoma cells, the 50% growth inhibitory concentration (GI50) is less than 1000 nM.

Take `O=C(Nc1ccc(Oc2ccnc3[nH]c(=O)cnc23)c(F)c1)Nc1cc(C(F)(F)F)ccc1F` [AA-086, 1-(3-fluoro-4-(3-oxo-3,4-dihydropyrido[2,3-b]pyrazin-8-yloxy)phenyl)-3-(2-fluoro-5-(trifluoromethyl)phenyl)urea]: the IC50 against B-RAF is less than 100 nM; in the test with pERK, 1000 to 10000 nM. Moreover, the GI50 in the test with WM266.4 melanoma cells lay in the range of 1000 to 10000 nM.

Consider `COc1ccc(-n2nc(C(C)(C)C)cc2NC(=O)Nc2ccc(Oc3ccnc4[nH]c(=O)cnc34)cc2SC)cn1` [AA-063, 1-(3-tert-butyl-1-(6-methoxypyridin-3-yl)-1H-pyrazol-5-yl)-3-(2-(methylthio)-4-(3-oxo-3,4-dihydropyrido[2,3-b]pyrazin-8-yloxy)phenyl)urea], for which the IC50 against B-RAF is less than 100 nM; in the test with pERK, less than 1000 nM. The compound further had a GI50 with WM266.4 melanoma cells of less than 1000 nM.

Turning to `O=C(Nc1ccc(Oc2ccnc3[nH]c(=O)cnc23)cc1F)Nc1cc(C(F)(F)F)ccc1-n1cccn1` [AA-094, 1-(2-(1H-pyrazol-1-yl)-5-(trifluoromethyl)phenyl)-3-(2-fluoro-4-(3-oxo-3,4-dihydropyrido[3,2-b]pyrazin-8-yloxy)phenyl)urea], the IC50 at B-RAF is less than 100 nM; in the test with pERK it was less than 1000 nM. Further, the GI50 in the test with WM266.4 melanoma cells fell in the range of 1000 to 10000 nM.

Take `CC(C)(C)c1cc(NC(=O)Nc2ccc(Oc3ccnc4[nH]c(=O)c(=O)[nH]c34)cc2F)n(-c2ccccc2)n1` [AA-091, 1-(3-Tert-butyl-1-phenyl-1H-pyrazol-5-yl)-3-(4-(2,3-dioxo-1,2,3,4-tetrahydropyrido[3,2-b]pyrazin-8-yloxy)-2-fluorophenyl)urea]: the IC50 is 100 to 1000 nM against B-RAF and less than 1000 nM in the test on pERK. This compound also showed a GI50 in the test on WM266.4 melanoma cells of less than 1000 nM.

As for `CC(C)(C)c1cc(NC(=O)Nc2cccc(Oc3ccnc4ncc(=O)[nH]c34)c2)n(-c2ccccc2)n1` [AA-076, 1-(3-tert-butyl-1-phenyl-1H-pyrazol-5-yl)-3-(3-(2-oxo-1,2-dihydropyrido[2,3-b]pyrazin-8-yloxy)phenyl)urea], the 50% inhibitory concentration (IC50) at B-RAF lay within 100 to 1000 nM; in the test on pERK it was 1000 to 10000 nM. Also, the GI50 in the test with WM266.4 melanoma cells is 1000 to 10000 nM.

`COCn1nc(C(C)(C)C)cc1NC(=O)Nc1ccc(Oc2ccnc3[nH]c(=O)cnc23)cc1F` [AA-098, 1-(3-Tert-butyl-1-(methoxymethyl)-1H-pyrazol-5-yl)-3-(2-fluoro-4-(3-oxo-3,4-dihydropyrido[3,2-b]pyrazin-8-yloxy)phenyl)urea]: the IC50 against B-RAF is less than 100 nM; in the test with pERK it was 1000 to 10000 nM. For the same compound, in the test on WM266.4 melanoma cells, the GI50 is 1000 to 10000 nM.

Consider `Nc1nc2nccc(Oc3ccc(NC(=O)Nc4cc(C(F)(F)F)ccc4F)c4ccccc34)c2[nH]c1=O` [AA-079, 1-(4-(3-amino-2-oxo-1,2-dihydropyrido[2,3-b]pyrazin-8-yloxy)naphthalen-1-yl)-3-(2-fluoro-5-(trifluoromethyl)phenyl)urea], for which the values for the IC50 against B-RAF and in the test with pERK were less than 100 nM and less than 1000 nM, respectively. In the test with WM266.4 melanoma cells, this compound showed a GI50 of less than 1000 nM.

On to `CC(C)(C)c1cc(NC(=O)Nc2ccc(Oc3ccnc4nc(N5CCOCC5)cnc34)cc2F)n(-c2ccccc2)n1` [AA-071, 1-(3-Tert-butyl-1-phenyl-1H-pyrazol-5-yl)-3-(2-fluoro-4-(3-morpholinopyrido[3,2-b]pyrazin-8-yloxy)phenyl)urea], for which the half-maximal inhibitory concentration (IC50) against B-RAF was 100 to 1000 nM; with pERK it was less than 1000 nM. Also, the GI50 in the test on WM266.4 melanoma cells is less than 1000 nM.

On to `Cc1ccc(-n2nc(C(C)(C)C)cc2NC(=O)Nc2ccc(Oc3ccnc4nc(CBr)c(=O)[nH]c34)cc2F)cc1` [AA-058, 1-(4-(3-(bromomethyl)-2-oxo-1,2-dihydropyrido[2,3-b]pyrazin-8-yloxy)-2-fluorophenyl)-3-(3-tert-butyl-1-p-tolyl-1H-pyrazol-5-yl)urea], for which the figures for the IC50 against B-RAF and in the test on pERK were 100 to 1000 nM and 1000 to 10000 nM, respectively. The GI50 in the test with WM266.4 melanoma cells was in the range of 1000 to 10000 nM.

Consider `COc1ccc(-n2nc(C(C)(C)C)cc2NC(=O)Nc2ccc(Oc3ccnc4[nH]c(=O)cnc34)cc2F)cn1` [AA-062, 1-(3-tert-butyl-1-(6-methoxypyridin-3-yl)-1H-pyrazol-5-yl)-3-(2-fluoro-4-(3-oxo-3,4-dihydropyrido[2,3-b]pyrazin-8-yloxy)phenyl)urea], for which the IC50 was less than 100 nM against B-RAF and less than 1000 nM in the test on pERK. In addition, the GI50 with WM266.4 melanoma cells was less than 1000 nM.

In the case of `CSc1cc(Oc2ccnc3[nH]c(=O)c(C)nc23)ccc1NC(=O)Nc1cc(C(C)(C)C)nn1-c1ccccc1` [AA-065, 1-(3-tert-butyl-1-phenyl-1H-pyrazol-5-yl)-3-(4-(2-methyl-3-oxo-3,4-dihydropyrido[2,3-b]pyrazin-8-yloxy)-2-(methylthio)phenyl)urea], the IC50 against B-RAF was less than 100 nM; with pERK, less than 1000 nM. Besides, in the test on WM266.4 melanoma cells, the GI50 was less than 1000 nM.
